Data taken from ChEMBL document CHEMBL2440002, “The application of Heck reaction in the synthesis of guaianolide sesquiterpene lactones derivatives selectively inhibiting resistant acute leukemic cells” (Bioorg Med Chem Lett, 2013).

Tests used:
[1] = test system: HL-60; experiment: Cytotoxicity against human HL60 cells after 72 hrs by MTT assay; assay type: functional, cell-based; conditions: HL-60, 72 h
[2] = Cytotoxicity against human HL60/A cells after 72 hrs by MTT assay; assay type: functional, cell-based
[3] = Induction of apoptosis in human HL60/A cells assessed as viable cells at 50 uM after 24 hrs by annexin V/propidium iodide based flow cytometry (reference value: 95.2 %); assay type: functional; conditions: read-out: Activity
[4] = Induction of apoptosis in human HL60/A cells assessed as early apoptotic cells at 50 uM after 24 hrs by annexin V/propidium iodide based flow cytometry (reference value: 2.66 %); assay type: functional
[5] = Induction of apoptosis in human HL60/A cells assessed as late apoptotic cells at 50 uM after 24 hrs by annexin V/propidium iodide based flow cytometry (reference value: 1.82 %); assay type: functional
[6] = Induction of apoptosis in human HL60/A cells assessed as necrotic cells at 50 uM after 24 hrs by annexin V/propidium iodide based flow cytometry (reference value: 0.282 %); assay type: functional
[7] = Induction of apoptosis in human HL60/A cells assessed as viable cells at 20 uM after 24 hrs by annexin V/propidium iodide based flow cytometry (reference value: 95.2 %); assay type: functional; conditions: read-out: Activity
[8] = Induction of apoptosis in human HL60/A cells assessed as early apoptotic cells at 20 uM after 24 hrs by annexin V/propidium iodide based flow cytometry (reference value: 2.66 %); assay type: functional
[9] = Induction of apoptosis in human HL60/A cells assessed as late apoptotic cells at 20 uM after 24 hrs by annexin V/propidium iodide based flow cytometry (reference value: 1.82 %); assay type: functional
[10] = Induction of apoptosis in human HL60/A cells assessed as necrotic cells at 20 uM after 24 hrs by annexin V/propidium iodide based flow cytometry (reference value: 0.282 %); assay type: functional
[11] = Induction of apoptosis in human HL60/A cells assessed as viable cells at 10 uM after 24 hrs by annexin V/propidium iodide based flow cytometry (reference value: 95.2 %); assay type: functional; conditions: read-out: Activity
[12] = Induction of apoptosis in human HL60/A cells assessed as late apoptotic cells at 10 uM after 24 hrs by annexin V/propidium iodide based flow cytometry (reference value: 1.82 %); assay type: functional
[13] = Induction of apoptosis in human HL60/A cells assessed as necrotic cells at 10 uM after 24 hrs by annexin V/propidium iodide based flow cytometry (reference value: 0.282 %); assay type: functional
[14] = Induction of apoptosis in human HL60/A cells assessed as early apoptotic cells at 10 uM after 24 hrs by annexin V/propidium iodide based flow cytometry (reference value: 2.66 %); assay type: functional

Row | SMILES | IC50 [1] [µM] | IC50 [2] [µM] | other results
1 | COc1cccc2c1C(=O)c1c(O)c3c(c(O)c1C2=O)C[C@@](O)(C(=O)CO)C[C@@H]3O[C@H]1C[C@H](N)[C@H](O)[C@H](C)O1 [DOXORUBICIN] | 0.07 | 7.8 | 
2 | C=C1CC[C@H]2C(=C)CC[C@H]3/C(=C\c4ccccc4F)C(=O)O[C@@H]3[C@@H]12 | > 50 | > 50 | 
3 | C=C1CC[C@H]2C(=C)CC[C@H]3/C(=C/c4ccccc4F)C(=O)O[C@@H]3[C@@H]12 | > 50 | > 50 | 
4 | CC1=C2CC[C@@](C)(O)[C@@H]2[C@H]2OC(=O)/C(=C/c3ccccc3F)[C@@H]2CC1 | > 50 | > 50 | 
5 | CC[Si](CC)(CC)O[C@]1(C)CCC2=C(C)CC[C@H]3/C(=C/c4ccccc4F)C(=O)O[C@@H]3[C@H]21 | 32 | 7.8 | 
6 | C=C1CC[C@H]2C(=C)CC[C@H]3/C(=C\c4cccc(C(F)(F)F)c4)C(=O)O[C@@H]3[C@@H]12 | 24 | 17 | 
7 | CC1=C2CC[C@@](C)(O)[C@@H]2[C@H]2OC(=O)/C(=C/c3cccc(F)c3)[C@@H]2CC1 | > 50 | 32 | 
8 | C=C1C(=O)O[C@H]2[C@H]1CCC(C)=C1CC[C@@](C)(O[Si](CC)(CC)CC)[C@@H]12 | 8.4 | 7.2 | 
9 | CC[Si](CC)(CC)O[C@]1(C)CCC2=C(C)CC[C@H]3/C(=C\c4ccc(Cl)cc4)C(=O)O[C@@H]3[C@H]21 | > 50 | > 50 | 
10 | CCc1ccc(/C=C2\C(=O)O[C@H]3[C@H]2CCC(C)=C2CC[C@@](C)(O[Si](CC)(CC)CC)[C@@H]23)cc1 | > 50 | 19 | 
11 | CC[Si](CC)(CC)O[C@]1(C)CCC2=C(C)CC[C@H]3/C(=C\c4ccccc4F)C(=O)O[C@@H]3[C@H]21 | > 50 | > 50 | 
12 | C=C1CC[C@H]2C(=C)CC[C@H]3/C(=C\c4ccc(F)cc4)C(=O)O[C@@H]3[C@@H]12 | > 50 | > 50 | 
13 | CC1=C2CC[C@@](C)(O)[C@@H]2[C@H]2OC(=O)/C(=C\c3ccccc3F)[C@@H]2CC1 | > 50 | > 50 | 
14 | CCc1ccc(/C=C2\C(=O)O[C@H]3[C@H]2CCC(C)=C2CC[C@@](C)(O)[C@@H]23)cc1 | > 50 | > 50 | 
15 | C=C1CC[C@H]2C(=C)CC[C@H]3/C(=C/c4ccc(F)cc4)C(=O)O[C@@H]3[C@@H]12 | > 50 | > 50 | 
16 | CCc1ccc(/C=C2/C(=O)O[C@H]3[C@H]2CCC(C)=C2CC[C@@](C)(O)[C@@H]23)cc1 | 31 | 6.2 | viability at 50 µM [3]: 0.94%; Activity [4]: 1.5%; Activity [5]: 85.9%; Activity [6]: 11.7%; viability at 20 µM [7]: 66%; Activity [8]: 4.66%; Activity [9]: 23.8%; Activity [10]: 5.51%; viability at 10 µM [11]: 89.2%; Activity [12]: 6.61%; Activity [13]: 1.03%; Activity [14]: 3.14%
17 | C=C1CC[C@H]2C(=C)CC[C@H]3/C(=C/c4ccccc4)C(=O)O[C@@H]3[C@@H]12 | > 50 | > 50 | 
18 | CC1=C2CC[C@@](C)(O)[C@@H]2[C@H]2OC(=O)/C(=C\c3cccc(F)c3)[C@@H]2CC1 | > 50 | > 50 | 

Row | SMILES | IC50 [1] [µM] | IC50 [2] [µM] | other results
19 | C=C1CC[C@H]2C(=C)CC[C@H]3/C(=C\c4cc(OC)c(OC)c(OC)c4)C(=O)O[C@@H]3[C@@H]12 | > 50 | > 50 | 
20 | C=C1CC[C@H]2C(=C)CC[C@H]3/C(=C\c4ccccc4)C(=O)O[C@@H]3[C@@H]12 | > 50 | > 50 | 
21 | C=C1CC[C@H]2C(=C)CC[C@H]3/C(=C/c4ccc(Cl)cc4)C(=O)O[C@@H]3[C@@H]12 | > 50 | > 50 | 
22 | C=C1CC[C@H]2C(=C)CC[C@H]3/C(=C/c4cc(OC)c(OC)c(OC)c4)C(=O)O[C@@H]3[C@@H]12 | > 50 | > 50 | 
23 | CCc1ccc(/C=C2/C(=O)O[C@H]3[C@H]2CCC(C)=C2CC[C@@](C)(O[Si](CC)(CC)CC)[C@@H]23)cc1 | 45 | 9.2 | 
24 | CC[Si](CC)(CC)O[C@]1(C)CCC2=C(C)CC[C@H]3/C(=C/c4ccc(F)cc4)C(=O)O[C@@H]3[C@H]21 | > 50 | > 50 | 
25 | C=C1CC[C@H]2C(=C)CC[C@H]3/C(=C/c4cccc(C(F)(F)F)c4)C(=O)O[C@@H]3[C@@H]12 | > 50 | > 50 | 
26 | CC[Si](CC)(CC)O[C@]1(C)CCC2=C(C)CC[C@H]3/C(=C/c4cccc(F)c4)C(=O)O[C@@H]3[C@H]21 | 52 | 10 | 
27 | CC1=C2CC[C@@](C)(O)[C@@H]2[C@H]2OC(=O)/C(=C/c3ccc(Cl)cc3)[C@@H]2CC1 | > 50 | > 50 | 
28 | C=C1CC[C@H]2C(=C)CC[C@H]3/C(=C\c4ccc(Cl)cc4)C(=O)O[C@@H]3[C@@H]12 | > 50 | > 50 | 
29 | CC[Si](CC)(CC)O[C@]1(C)CCC2=C(C)CC[C@H]3/C(=C\c4ccc(F)cc4)C(=O)O[C@@H]3[C@H]21 | > 50 | > 50 | 
30 | C=C1CC[C@H]2C(=C)CC[C@H]3/C(=C\c4ccc(CC)cc4)C(=O)O[C@@H]3[C@@H]12 | > 50 | > 50 | 
31 | CC1=C2CC[C@@](C)(O)[C@@H]2[C@H]2OC(=O)/C(=C\c3ccc(F)cc3)[C@@H]2CC1 | > 50 | > 50 | 
32 | CC1=C2CC[C@@](C)(O)[C@@H]2[C@H]2OC(=O)/C(=C\c3ccc(Cl)cc3)[C@@H]2CC1 | > 50 | > 50 | 
33 | CC[Si](CC)(CC)O[C@]1(C)CCC2=C(C)CC[C@H]3/C(=C\c4cccc(F)c4)C(=O)O[C@@H]3[C@H]21 | > 50 | > 50 | 
34 | C=C1CC[C@H]2C(=C)CC[C@H]3/C(=C/c4ccc(CC)cc4)C(=O)O[C@@H]3[C@@H]12 | > 50 | > 50 | 
35 | CC[Si](CC)(CC)O[C@]1(C)CCC2=C(C)CC[C@H]3/C(=C/c4ccc(Cl)cc4)C(=O)O[C@@H]3[C@H]21 | > 50 | > 50 | 
36 | CC1=C2CC[C@@](C)(O)[C@@H]2[C@H]2OC(=O)/C(=C/c3ccc(F)cc3)[C@@H]2CC1 | > 50 | > 50 | 
